Measurements: article PMC10485887, “PET Evaluation of the Novel F-18 Labeled Reversible Radioligand [^18F]GEH200449 for Detection of Monoamine Oxidase-B in the Non-Human Primate Brain” (ACS Chemical Neuroscience, 2023)

What was measured:
[1] = PET whole-brain radioactivity (brain exposure) at baseline; type: in vivo, Macaca fascicularis; settings: for whole-brain radioactivity, maximum concentration: IV injection
Procedure: Two male and three female NHPs (#1–5) of the species M. fascicularis, weighing 4.2–8.8 kg, were supplied by the Astrid Fagraeus Laboratory, Karolinska Institutet, Solna, Sweden. Anesthesia was initiated by intramuscular injection of ketamine hydrochloride (ca. 10 mg/kg, Ketalar, Pfizer) and maintained by intravenous infusion of a mixture of ketamine hydrochloride (4 mg/kg/h) and xylazine hydrochloride (0.4 mg/kg/h Rompun Vet., Bayer).
PET measurements were conducted using the high-resolution research tomograph system (Siemens Molecular Imaging, Knoxville, TN, USA) for NHPs #1–4 and using the LFER 150 PET/CT system (Mediso Ltd., Budapest, Hungary) for NHP #5.
(§1) At start of PET data acquisition, a sterile physiological phosphate buffer solution (pH = 7.4) of [^18F]GEH200449 (injected radioactivity, 107–167 MBq) was injected as a bolus into a sural vein. Emission data were acquired in list mode for 123 min. Arterial blood was sampled as previously described[28] using an automated blood sampling system (ABSS) during the first 3 min of each PET measurement. Subsequently, arterial blood samples (0.7–2.5 mL) were manually drawn at 7, 15, 30, 60, 90, and 120 min after injection of [^18F]GEH200449. After centrifugation, 0.15–1.0 mL of plasma was pipetted and plasma radioactivity was measured in a well counter. In addition, samples were taken directly from the ABSS at 0.5, 1, 1.5, 2, 2.5, and 3 min for cross-calibration with the well counter and for the determination of the plasma-to-blood ratio.
Dynamic images were reconstructed as previously described.[30],[31] Regions of interest (ROIs) for the whole brain and selected regions (caudate nucleus, putamen, thalamus, occipital cortex, prefrontal cortex, and cerebellum) were manually delineated on T1-weighted magnetic resonance images (MRIs) acquired as previously described.[21],[27] PET images were coregistered to the MRIs, and time-activity curves were generated by pooling ROIs for each paired anatomical region and applying the pooled ROIs to the coregistered PET images. […]

MAO-B [2] = type: in vivo, Macaca fascicularis; settings: from pretreatment and displacement with reference competitors
Procedure: Each PET measurement was performed on a separate experimental day. Experiments conducted in the same NHP were separated by at least 6 weeks. Baseline PET measurements were initially undertaken in each of the five NHPs.
Time curves for regional [^18F]GEH200449 binding at baseline were analyzed by kinetic modeling using 1-TC and 2-TC models,[32] and VT as outcome measures. Akaike information criterion[33] and F statistics were applied to select the preferred model. Regional estimates of VT for [^18F]GEH200449 were also obtained using the Logan linear graphical method[34] with t* fixed at 40 min. The analyses were performed using the kinetic modeling tool in PMOD v. 4.3. Occupancy at [^18F]GEH200449 binding sites was estimated based on regional VT values obtained by the Logan method at baseline and after drug administration according to a graphical procedure described in the literature.[22]

[3] = Fraction of unchanged radioligand in arterial plasma (radiometabolite analysis); type: in vivo, Macaca fascicularis; settings: 30 min after injection
Procedure: as §1
The fraction of plasma radioactivity corresponding to the unchanged radioligand in plasma was determined from arterial plasma samples collected at 2, 7, 15, 30, 60, 90, and 120 min after injection of [^18F]GEH200449 according to previously described procedures.[29]

MAO-B [4] = tested on: MAO-B; set-up: method as in PMID 33284012; settings: autoradiography; cited from earlier work

With O=c1ccoc2ccc(OCc3ccc([18F])nc3)cc12 [[^18F]GEH200449] the “whole-brain radioactivity, maximum concentration” value [1] was 4.0–6.4 %ID, the “whole-brain radioactivity, maximum concentration” value ([1]; n = 5 NHPs) was 3.4–5.2 SUV and the “time to maximum whole-brain radioactivity concentration” value ([1]; after IV injection) was 1.8 to 7.5 min. For the same compound, the “character of binding in the NHP brain” value (MAO-B [2]) was “reversible and selective toward MAO-B”, the “parent radioligand remaining unchanged in plasma” value [3] was 5–28% and the “binding in human brain tissue” value (MAO-B [4]) was “specific binding to MAO-B”. The “non-specific binding in human brain tissue” value (MAO-B [4]) was “low”.
